Our source for the IC50 values is US11634391B2, “Compounds which are inhibitors of Notum” (UCL BUSINESS LTD, priority 2018, dated 2023).

The target in this assay is notum carboxyesterase enzyme (Homo sapiens (Human), UniProt Q6P988). As to the kind of experiment: Biochemical Notum Enzymatic Activity Assay (OPTS substrate, fluorescence). Conditions: 2 μM OPTS solution, 2.38 nM notum enzyme solution, 1 hour incubation at room temperature, fluorescence ex 485 nm / em 520 nm; n≥2. From the text:
Plate layout and measured fluorescence values were input into Dotmatics Studies data management tool.

The term IC50 denotes the point on the concentration scale where inhibition reaches its midpoint. Higher therefore signals lower potency.

notum carboxyesterase enzyme, sequence (Q6P988 20-496): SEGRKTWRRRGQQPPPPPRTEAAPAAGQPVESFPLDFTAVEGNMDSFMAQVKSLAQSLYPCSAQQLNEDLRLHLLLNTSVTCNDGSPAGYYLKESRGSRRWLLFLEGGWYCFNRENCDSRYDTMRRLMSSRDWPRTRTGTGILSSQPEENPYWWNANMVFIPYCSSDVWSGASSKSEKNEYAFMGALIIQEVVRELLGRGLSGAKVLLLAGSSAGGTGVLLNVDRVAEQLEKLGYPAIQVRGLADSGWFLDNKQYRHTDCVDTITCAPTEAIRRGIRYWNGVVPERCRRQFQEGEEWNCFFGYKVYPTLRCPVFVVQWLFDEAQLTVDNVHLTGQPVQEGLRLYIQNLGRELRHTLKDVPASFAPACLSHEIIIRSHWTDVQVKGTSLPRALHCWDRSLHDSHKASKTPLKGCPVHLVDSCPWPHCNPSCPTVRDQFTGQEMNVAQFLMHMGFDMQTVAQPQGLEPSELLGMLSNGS

With `Fc1ccc(-c2cc[nH]n2)cc1F` [Compound 53, 3-(3,4-difluorophenyl)-1H-pyrazole], the IC50 was determined as 16.7 µM. In other words, the double-digit micromolar range. With `Clc1ccc(-c2ccno2)cc1` [Compound 150, 5-(4-chlorophenyl)isoxazole] the figure was 1.1 µM; with `c1nnc(-c2ccc(C3CC3)nc2)o1` [Compound 226, 2-(6-cyclopropyl-3-pyridyl)-1,3,4-oxadiazole], 42.2 µM; with `Oc1nnc(-c2cccc(C(F)(F)F)n2)o1` [Compound 206, 5-[6-(trifluoromethyl)-2-pyridyl]-1,3,4-oxadiazol-2-ol], over 23.1 µM. `OCc1cn(-c2ccc(Cl)c(OCC3CC3)c2)nn1` [Compound 18, (1-(4-chloro-3-(cyclopropylmethoxy)phenyl)-1H-1,2,3-triazol-4-yl)methanol] had an IC50 of over 10 µM. With `O=C(O)c1cc(-c2ccc(Cl)cc2)c[nH]1` [Compound 160, 4-(4-chlorophenyl)-1H-pyrrole-2-carboxylic acid] the figure was 21 µM; with `FC(F)(F)c1ccc(-c2nnco2)cc1C1COC1` [Compound 181, 2-[3-(oxetan-3-yl)-4-(trifluoromethyl)phenyl]-1,3,4-oxadiazole], 0.257 µM. The value for `OCc1cn(Cc2ccc(Cl)cc2)nn1` [Compound 162, (1-(4-chlorobenzyl)-1H-1,2,3-triazol-4-yl)methanol] was 68.5 µM; that for `Clc1ccc(-c2nnco2)cn1` [Compound 124, 2-(6-chloropyridin-3-yl)-1,3,4-oxadiazole] was 13 µM; that for `CC(C)c1ccc(-n2cnnn2)cc1` [Compound 217, 1-(4-isopropylphenyl)tetrazole] was 21.4 µM. In the case of “4-(4-(1,3,4-oxadiazol-2-yl)-2-(trifluoromethyl)phenyl)pyrrolidine [Compound 280]”, the IC50 came to 0.405 µM. With `Clc1cccc(-c2cc[nH]n2)c1` [Compound 54, 3-(3-chlorophenyl)-1H-pyrazole] the figure was 17.7 µM; with `Nc1nc(-c2ccccc2)no1` [Compound 141, 3-phenyl-1,2,4-oxadiazol-5-amine], 70.6 µM; with `Cc1nnnn1-c1ccc(Cl)c(C(F)(F)F)c1` [Compound 182, 1-[4-chloro-3-(trifluoromethyl)phenyl]-5-methyl-tetrazole], 1.17 µM.
